{"source": "patent US4767749A", "about": "“Ester of (triarylphosphoranylidene)carbamic acid having diuretic and ability to lower plasma renin properties” (American Cyanamid Company, priority 1986, dated 1988)", "note": "Counter-ions that a name gives are not always drawn."}
{"tested_on": "spontaneously hypertensive rats (SHR)", "assay": "Diuretic activity in spontaneously hypertensive rats", "type": "in vivo, male spontaneously hypertensive rats (Okamoto strain)", "conditions": "100 mg/kg by gavage with 0.9% sodium chloride loading 25 ml/kg; 0-5 hour urine", "method": "The diuretic activity of the compounds of this invention was also determined according to the method of Chan, P. S. and Poorvin, D., Sequential method for combined screening antihypertensive and diuretic agents in the same spontaneously hypertensive rat. Clinical and Experimental Hypertension, 1(6), 817-830 (1979).\nMale spontaneously hypertensive rats (SHR) of Okamoto strain, 16 weeks old, Taconic Farms Inc. were used in the test. These rats were kept on Purina laboratory chow and tap water ad libitum for 8 weeks before use. One male adult rat (about 300 g) was dosed by gavage with a test compound at 100 mg/kg together with 0.9% sodium chloride loading at 25 ml/kg at zero hour. The test compound was suspended in 3% preboiled starch at 50 mg/ml. The rat was put in a metabolism cage. The 0-5 hour urine was collected and urinary sodium and potassium were determined using a Beckman Astra 4. The effects of representative compounds of the invention according to this test appear in Table III expressed in milliequivalents (mEQ) of urinary sodium and potassium excreted.", "units": {"Potassium (urinary excretion)": "mEQ/5 Hours", "Sodium (urinary excretion)": "mEQ/5 Hours", "Volume (urine)": "mL"}}
{"compound": "Cc1ccccc1P(=N)(c1ccccc1)c1ccccc1C", "note": "[[Bis(2-methylphenyl)phenyl]phosphinimide sulfate]", "Potassium (urinary excretion)": 0.88, "Sodium (urinary excretion)": 1.44, "Volume (urine)": 13.0}
{"compound": "O=C(N=P(c1ccccc1)(c1ccccc1)c1ccccc1C(F)(F)F)OC1CCOC1", "note": "(stereo not drawn) [[diphenyl[2-(trifluoromethyl)phenyl]phosphoranylidene]carbamic acid, tetrahydro-3-furanyl ester]", "Potassium (urinary excretion)": 0.63, "Sodium (urinary excretion)": 1.64, "Volume (urine)": 16.3}
{"compound": "Cc1ccccc1P(=N)(c1ccccc1)c1ccccc1", "note": "[(2-Methylphenyl)diphenylphosphinimide sulfate]", "Potassium (urinary excretion)": 0.68, "Sodium (urinary excretion)": 1.88, "Volume (urine)": 16.3}
{"compound": "CCOC(=O)N=P(c1ccccc1)(c1ccccc1Cl)c1ccccc1Cl", "note": "[[bis(2-chlorophenyl)phenylphosphoranylidene]carbamic acid, ethyl ester]", "Potassium (urinary excretion)": 0.38, "Sodium (urinary excretion)": 2.40, "Volume (urine)": 22.3}
{"compound": "CCOC(=O)N=P(c1ccccc1)(c1cccc(Cl)c1)c1cccc(Cl)c1", "note": "[[[bis(3-chlorophenyl)phenyl]phosphoranylidene]carbamic acid, ethyl ester]", "Potassium (urinary excretion)": 0.89, "Sodium (urinary excretion)": 1.84, "Volume (urine)": 18.3}
{"compound": "CCOC(=O)N=P(c1ccccc1)(c1ccccc1)c1ccccc1CC", "note": "[[(2-ethylphenyl)diphenylphosphoranylidene]carbamic acid, ethyl ester]", "Potassium (urinary excretion)": 0.78, "Sodium (urinary excretion)": 2.07, "Volume (urine)": 19.0}
{"compound": "CCOC(=O)N=P(c1ccccc1)(c1ccccc1)c1ccccc1F", "note": "[[Diphenyl(2-fluorophenyl)phosphoranylidene]carbamic acid, ethyl ester]", "Potassium (urinary excretion)": 0.66, "Sodium (urinary excretion)": 2.01, "Volume (urine)": 19.8}
{"compound": "O=C(N=P(c1ccccc1)(c1ccccc1)c1ccccc1)OCC1CCC1", "note": "[(Triphenylphosphoranylidene)carbamic acid, cyclobutylmethyl ester]", "Potassium (urinary excretion)": 0.60, "Sodium (urinary excretion)": 1.47, "Volume (urine)": 14.5}
{"compound": "O=C(N=P(c1ccccc1)(c1ccccc1)c1ccccc1)OC1CCCC1", "note": "[(triphenylphosphoranylidene)carbamic acid, cyclopentyl ester]", "Potassium (urinary excretion)": 0.80, "Sodium (urinary excretion)": 1.48, "Volume (urine)": 14.0}
{"compound": "O=C(N=P(c1ccccc1)(c1ccccc1)c1ccccc1)OC(C1CC1)C1CC1", "note": "[(triphenylphosphoranylidene)carbamic acid, dicyclopropylmethyl ester]", "Potassium (urinary excretion)": 1.07, "Sodium (urinary excretion)": 1.58, "Volume (urine)": 14.3}
{"compound": "CCOC(=O)N=P(c1ccccc1)(c1ccccc1)c1cccc(F)c1", "note": "[[[(3-fluorophenyl)diphenylphosphoranylidene]carbamic acid, ethyl ester]", "Potassium (urinary excretion)": 0.62, "Sodium (urinary excretion)": 2.44, "Volume (urine)": 24.0}
{"compound": "CO[C@@H]1CCC[C@H]1OC(=O)N=P(c1ccccc1)(c1ccccc1)c1ccccc1", "note": "(relative stereo) [(triphenylphosphoranylidene)carbamic acid, trans-2-methoxycyclopentyl ester]", "Potassium (urinary excretion)": 0.72, "Sodium (urinary excretion)": 1.83, "Volume (urine)": 17.0}
{"compound": "COC1CCCCC1OC(=O)N=P(c1ccccc1)(c1ccccc1)c1ccccc1", "note": "(stereo not drawn) [(triphenylphosphoranylidene)carbamic acid, cis- and trans-2-methoxycyclohexyl ester]", "Potassium (urinary excretion)": 0.59, "Sodium (urinary excretion)": 1.15, "Volume (urine)": 11.3}
{"compound": "O=C(N=P(c1ccccc1)(c1ccccc1)c1ccccc1)OC1CCOCC1", "note": "[(triphenylphosphoranylidene)carbamic acid, tetrahydro-2 --H--pyran-4-yl ester]", "Potassium (urinary excretion)": 0.64, "Sodium (urinary excretion)": 1.60, "Volume (urine)": 15.3}
{"compound": "CC1CC1COC(=O)N=P(c1ccccc1)(c1ccccc1)c1ccccc1", "note": "(stereo not drawn) [(triphenylphosphoranylidene)carbamic acid, (2-methylcyclopropyl)methyl ester]", "Potassium (urinary excretion)": 0.47, "Sodium (urinary excretion)": 1.28, "Volume (urine)": 11.3}
{"compound": "CCC1(OC(=O)N=P(c2ccccc2)(c2ccccc2)c2ccccc2)CCCC1", "note": "[(triphenylphosphoranylidene)carbamic acid, 1-ethylcyclopentyl ester]", "Potassium (urinary excretion)": 1.01, "Sodium (urinary excretion)": 1.34, "Volume (urine)": 12.5}
{"compound": "O=C(N=P(c1ccccc1)(c1ccccc1)c1ccccc1)OCC1CC1", "note": "[(Triphenylphosphoranylidene)carbamic acid, cyclopropylmethyl ester]", "Potassium (urinary excretion)": 0.57, "Sodium (urinary excretion)": 2.00, "Volume (urine)": 19.5}
{"compound": "Cc1ccccc1P(=NC(=O)OC1CCCC1)(c1ccccc1)c1ccccc1", "note": "[[(2-methylphenyl)diphenylphosphoranylidene]carbamic acid, cyclopentyl ester]", "Potassium (urinary excretion)": 0.67, "Sodium (urinary excretion)": 1.18, "Volume (urine)": 10.8}
{"compound": "CCOC(=O)N=P(c1ccccc1)(c1ccccc1)c1cccc(C(F)(F)F)c1", "note": "[[(3-trifluorophenyl)diphenylphosphoranylidene]carbamic acid, ethyl ester]", "Potassium (urinary excretion)": 0.67, "Sodium (urinary excretion)": 1.38, "Volume (urine)": 13.5}
{"compound": "CCO[C@@H]1CCC[C@H]1OC(=O)N=P(c1ccccc1)(c1ccccc1)c1ccccc1", "note": "(relative stereo) [(triphenylphosphoranylidene)carbamic acid, trans-2-ethoxycyclopentyl ester]", "Potassium (urinary excretion)": 0.73, "Sodium (urinary excretion)": 1.38, "Volume (urine)": 13.3}
{"compound": "COC(=O)N=P(c1ccccc1)(c1ccccc1C)c1ccccc1C", "note": "[[Bis(2-methylphenyl)phenylphosphoranylidene]carbamic acid, methyl ester]", "Potassium (urinary excretion)": 0.76, "Sodium (urinary excretion)": 1.45, "Volume (urine)": 13.5}
{"compound": "CCOC(=O)N=P(c1ccccc1)(c1ccccc1)c1cccc(Cl)c1", "note": "[[(3-chlorophenyl)diphenylphosphoranylidene]carbamic acid, ethyl ester]", "Potassium (urinary excretion)": 0.64, "Sodium (urinary excretion)": 2.32, "Volume (urine)": 23.8}
{"compound": "O=C(N=P(c1ccccc1)(c1ccccc1)c1ccccc1)OC1CCc2ccccc21", "note": "(stereo not drawn) [(Triphenylphosphoranylidene)carbamic acid, 2,3-dihydro-1 --H--inden-1-yl ester]", "Potassium (urinary excretion)": 0.87, "Sodium (urinary excretion)": 1.41, "Volume (urine)": 13.0}
{"compound": "C#CCOC(=O)N=P(c1ccccc1)(c1ccccc1)c1ccccc1", "note": "[(triphenylphosphoranylidene)carbamic acid, 2-propynyl ester]", "Potassium (urinary excretion)": 0.58, "Sodium (urinary excretion)": 1.76, "Volume (urine)": 15.5}
{"compound": "CC(OC(=O)N=P(c1ccccc1)(c1ccccc1)c1ccccc1)C1CC1", "note": "(stereo not drawn) [(triphenylphosphoranylidene)carbamic acid, 1-cyclopropylethyl ester]", "Potassium (urinary excretion)": 0.65, "Sodium (urinary excretion)": 1.19, "Volume (urine)": 12.0}
{"compound": "N=P(c1ccccc1)(c1ccccc1)c1ccccc1", "note": "[Triphenylphosphinimide sulfate]", "Potassium (urinary excretion)": 0.65, "Sodium (urinary excretion)": 1.25, "Volume (urine)": 12.0}
{"compound": "CCOC(=O)N=P(c1ccccc1)(c1ccccc1)c1ccccc1OC", "note": "[[(2-Methoxyphenyl)diphenylphosphoranylidene]carbamic acid, ethyl ester]", "Potassium (urinary excretion)": 0.97, "Sodium (urinary excretion)": 1.31, "Volume (urine)": 11.3}
{"compound": "O=C(N=P(c1ccccc1)(c1ccccc1)c1ccccc1)OC1C=CCC1", "note": "(stereo not drawn) [(triphenylphosphoranylidene)carbamic acid, 2-cyclopenten-1-yl ester]", "Potassium (urinary excretion)": 0.83, "Sodium (urinary excretion)": 1.58, "Volume (urine)": 15.5}
{"compound": "O=C(N=P(c1ccccc1)(c1ccccc1)c1ccccc1Cl)OC1CCOC1", "note": "(stereo not drawn) [[(2-chlorophenyl)diphenylphosphoranylidene]carbamic acid, tetrahydro-3-furanyl ester]", "Potassium (urinary excretion)": 0.68, "Sodium (urinary excretion)": 1.90, "Volume (urine)": 20.0}
{"compound": "CCOC(=O)N=P(c1ccccc1)(c1ccccc1)c1ccccc1C(C)C", "note": "[[[2-(1-Methylethyl)phenyl]diphenylphosphoranylidene]carbamic acid, ethyl ester]", "Potassium (urinary excretion)": 0.83, "Sodium (urinary excretion)": 2.08, "Volume (urine)": 18.8}
{"compound": "CC(=O)CCCOC(=O)N=P(c1ccccc1)(c1ccccc1)c1ccccc1", "note": "[(triphenylphosphoranylidene)carbamic acid, 4-oxo-pentan-1-yl ester]", "Potassium (urinary excretion)": 0.58, "Sodium (urinary excretion)": 1.16, "Volume (urine)": 13.3}
